Among the data in the NIST ThermoML archive (doi:10.1016/j.fluid.2015.04.022) are viscosity and mass density values, retold here.

Numbers after ± are expanded uncertainties.

One may read the viscosity as the internal friction of a fluid under shear. As usually defined, the mass density is the mass of a sample divided by its volume.

The conditions of the series: 298.2 K, 101.33 kPa, Liquid; for viscosity: Falling or rolling sphere viscometry; for mass density: Vibrating tube method.

Take `C=CC(C)(O)CCC=C(C)C` (centres undefined) [3,7-dimethyl-1,6-octadien-3-ol]: the viscosity is 4.57 ± 0.13 mPa·s and the mass density worked out at 857.38 ± 0.28 kg/m3.
Taken in the same sequence, the figures for `C=C(C)[C@H]1CC=C(C)CC1` [(R)-1-methyl-4-(1-methylethenyl)cyclohexene] were 0.92 ± 0.12 mPa·s and 841.35 ± 0.36 kg/m3.
